Where a name gives a salt, the structure may show the parent alone.
System: mice
Experiment: Neuropharmacological Assay (SmartCube): automated behavioral signature of compound-treated mice compared with a database of reference drug classes
Format: in vivo
Details: for minimal effective dose: Mus musculus, ip, read-out: MED; for minimal effective dose / MED: minimal effective dose: dose having 45% or more total activity in SmartCube, i.p., if only one dose tested, that dose is shown; for AD / AG / AN / AP / AX / CE / HL / MS / PS / SH / UK: SmartCube class probability, 3.0 mg/kg i.p., 15 min before test
Outline: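 Probabilities reflect how closely the digitally recorded behavioural signature at 3.0 mg/kg i.p. matched each reference class (antipsychotic, anxiolytic, antidepressant etc.). Dosing occurred 15 min before testing. Minimal effective dose was the dose giving 45% or more total activity.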

Compound	minimal effective dose	AD	AG	AN	AP	AX	CE	HL	MS	PS	SH	UK (hydrochloride, 3 mg/kg)	MED	UK	AD (hydrochloride, 3 mg/kg)	MED (hydrochloride)	AX (hydrochloride, 3 mg/kg)	other results
CNC1CCc2sc(Cl)cc2C1 (single isomer, unassigned) [Compound 151, 2-chloro-N-methyl-4,5,6,7-tetrahydrobenzothiophen-5-amine hydrochloride]	3 mg/kg	ND (^ <4%)	ND (^ <4%)	ND (^ <4%)	ND (^ <4%)	ND (^ <4%)	ND (^ <4%)	ND (^ <4%)	ND (^ <4%)	ND (^ <4%)	ND (^ <4%)	+++ (≥49%)						
CNC1CCc2sc(Cl)cc2C1 (single isomer, unassigned) [Compound 152, 2-chloro-N-methyl-4,5,6,7-tetrahydrobenzothiophen-5-amine hydrochloride]		ND (^ <4%)	ND (^ <4%)	ND (^ <4%)	ND (^ <4%)	ND (^ <4%)	ND (^ <4%)	ND (^ <4%)	ND (^ <4%)	ND (^ <4%)	ND (^ <4%)	++ (≥24%)	3 mpk					
CNC1CCc2csc(C3CC3)c2C1 (single isomer, unassigned) [Compound 154, 3-cyclopropyl-N-methyl-4,5,6,7-tetrahydro-2-benzothiophen-5-amine hydrochloride]			ND (^ <4%)	ND (^ <4%)	ND (^ <4%)	ND (^ <4%)		ND (^ <4%)		ND (^ <4%)				ND (^ <4%)	ND (^ <4%)	>1 mpk		CE (hydrochloride, 3 mg/kg): ND (^ <4%); MS (hydrochloride, 3 mg/kg): ND (^ <4%); SH (hydrochloride, 3 mg/kg): ND (^ <4%)
CNC1CCc2csc(C3CC3)c2C1 (single isomer, unassigned) [Compound 155, 3-cyclopropyl-N-methyl-4,5,6,7-tetrahydro-2-benzothiophen-5-amine hydrochloride]			ND (^ <4%)	ND (^ <4%)	ND (^ <4%)	ND (^ <4%)		ND (^ <4%)		ND (^ <4%)				ND (^ <4%)	+ (≥4%)	0.3 mpk		CE (hydrochloride, 3 mg/kg): + (≥4%); MS (hydrochloride, 3 mg/kg): + (≥4%); SH (hydrochloride, 3 mg/kg): ++ (≥24%)
CN(C)C1CCc2cscc2C1.Cl (single isomer, unassigned) [Compound 156, N,N-dimethyl-4,5,6,7-tetrahydro-2-benzothiophen-5-amine hydrochloride]	3 mg/kg	ND (^ <4%)	ND (^ <4%)	ND (^ <4%)	ND (^ <4%)		ND (^ <4%)	ND (^ <4%)	ND (^ <4%)	ND (^ <4%)	ND (^ <4%)	++ (≥24%)					++ (≥24%)	
CN(C)C1CCc2cscc2C1.Cl (single isomer, unassigned) [Compound 157, N,N-dimethyl-4,5,6,7-tetrahydro-2-benzothiophen-5-amine hydrochloride]		ND (^ <4%)	ND (^ <4%)	ND (^ <4%)	ND (^ <4%)		ND (^ <4%)	ND (^ <4%)	ND (^ <4%)	ND (^ <4%)	ND (^ <4%)	ND (^ <4%)	3 mpk				+++ (≥49%)	
c1scc2c1CCC(NCC1CC1)C2 (single isomer, unassigned) [Compound 158, N-(cyclopropylmethyl)-4,5,6,7-tetrahydro-2-benzothiophen-5-amine hydrochloride]		ND (^ <4%)	ND (^ <4%)	ND (^ <4%)	ND (^ <4%)		ND (^ <4%)	ND (^ <4%)	ND (^ <4%)	ND (^ <4%)	ND (^ <4%)	ND (^ <4%)				1 mpk	++++ (≥74%)	
c1scc2c1CCC(NCC1CC1)C2 (single isomer, unassigned) [Compound 159, N-(cyclopropylmethyl)-4,5,6,7-tetrahydro-2-benzothiophen-5-amine hydrochloride]		ND (^ <4%)	ND (^ <4%)	ND (^ <4%)	ND (^ <4%)		ND (^ <4%)	ND (^ <4%)	ND (^ <4%)	ND (^ <4%)	ND (^ <4%)	+ (≥4%)				>3 mpk	ND (^ <4%)	
c1scc2c1CCC(NC1CCC1)C2 (single isomer, unassigned) [Compound 160, N-cyclobutyl-4,5,6,7-tetrahydro-2-benzothiophen-5-amine hydrochloride]	> 3 mg/kg	ND (^ <4%)	ND (^ <4%)	ND (^ <4%)	ND (^ <4%)	ND (^ <4%)	ND (^ <4%)	ND (^ <4%)	ND (^ <4%)	ND (^ <4%)	ND (^ <4%)	+ (≥4%)						
c1scc2c1CCC(NC1CCC1)C2 (single isomer, unassigned) [Compound 161, N-cyclobutyl-4,5,6,7-tetrahydro-2-benzothiophen-5-amine hydrochloride]		ND (^ <4%)	ND (^ <4%)	ND (^ <4%)	ND (^ <4%)	ND (^ <4%)	ND (^ <4%)	ND (^ <4%)	ND (^ <4%)	ND (^ <4%)	ND (^ <4%)	ND (^ <4%)	>3 mpk					
Cc1scc2c1CC(N)CC2 (single isomer, unassigned) [Compound 162, 3-methyl-4,5,6,7-tetrahydro-2-benzothiophen-5-amine hydrochloride]	3 mg/kg	ND (^ <4%)	ND (^ <4%)	ND (^ <4%)	ND (^ <4%)		ND (^ <4%)	ND (^ <4%)	ND (^ <4%)	ND (^ <4%)	ND (^ <4%)			+ (≥4%)			+++ (≥49%)	
Cc1scc2c1CC(N)CC2 (single isomer, unassigned) [Compound 163, 3-methyl-4,5,6,7-tetrahydro-2-benzothiophen-5-amine hydrochloride]		ND (^ <4%)	ND (^ <4%)	ND (^ <4%)	ND (^ <4%)		ND (^ <4%)	ND (^ <4%)	ND (^ <4%)	ND (^ <4%)	ND (^ <4%)			+ (≥4%)		>3 mpk	ND (^ <4%)	
Cc1scc2c1CCC(N)C2 (single isomer, unassigned) [Compound 164, 1-methyl-4,5,6,7-tetrahydro-2-benzothiophen-5-amine hydrochloride]	3 mg/kg		ND (^ <4%)	ND (^ <4%)	ND (^ <4%)	ND (^ <4%)	ND (^ <4%)		ND (^ <4%)	ND (^ <4%)	ND (^ <4%)			ND (^ <4%)	+++ (≥49%)			HL (hydrochloride, 3 mg/kg): ND (^ <4%)
Cc1scc2c1CCC(N)C2 (single isomer, unassigned) [Compound 165, 1-methyl-4,5,6,7-tetrahydro-2-benzothiophen-5-amine hydrochloride]			ND (^ <4%)	ND (^ <4%)	ND (^ <4%)	ND (^ <4%)	ND (^ <4%)		ND (^ <4%)	ND (^ <4%)	ND (^ <4%)		3 mpk	ND (^ <4%)	ND (^ <4%)			HL (hydrochloride, 3 mg/kg): ++++ (≥74%)
NC1CCc2cscc2C1 (single isomer, unassigned) [Compound 166, 4,5,6,7-tetrahydro-2-benzothiophen-5-amine hydrochloride]	1 mg/kg		ND (^ <4%)	ND (^ <4%)		+++ (≥49%)	ND (^ <4%)	ND (^ <4%)	ND (^ <4%)		ND (^ <4%)			ND (^ <4%)	+ (≥4%)			AP (hydrochloride, 3 mg/kg): ++ (≥24%); PS (hydrochloride, 3 mg/kg): ND (^ <4%)
NC1CCc2cscc2C1 (single isomer, unassigned) [Compound 167, 4,5,6,7-tetrahydro-2-benzothiophen-5-amine hydrochloride]			ND (^ <4%)	ND (^ <4%)		+++ (≥49%)	ND (^ <4%)	ND (^ <4%)	ND (^ <4%)		ND (^ <4%)		1 mpk	ND (^ <4%)	++ (≥24%)			AP (hydrochloride, 3 mg/kg): ND (^ <4%); PS (hydrochloride, 3 mg/kg): + (≥4%)

— patent US20260274814A1, “THIENYL COMPOUNDS FOR THE TREATMENT OF A CENTRAL NERVOUS SYSTEM DISEASE OR DISORDER” (Coreterra Therapeutics, Inc., priority 2023, published 2026)
